Experimental data: patent publication US20100048606A1, “10-Substituted Cytisine Derivatives and Methods of Use Thereof” (Georgetown University Office of Technology Commercialization, priority 2006, published 2010)
pEC50, pKi: −log10 of the molar value. Where two headings read alike, the source gives them in different places.

Columns and labels:
α4β4 nAChR = target: T1, α4β4 nAChR (Rattus norvegicus, UniProt P09483+P12392); experiment: Competition binding with [3H]epibatidine, membrane homogenates of stably transfected cells; settings: for potency estimated from few doses: read-out: Estimated Ki α4β4
T1 construct: expressed in transfected cells

[1] = target: nAChRs of rat forebrain tissue (Rattus norvegicus, UniProt P09483+P12390); format: binding; settings: for pKi: mean of three to five independent measurements
α2β2 nAChR = target: T2, α2β2 nAChR (Rattus norvegicus, UniProt P12389+P12390); experiment: Competition binding with [3H]epibatidine, membrane homogenates of stably transfected cells; settings: for potency estimated from few doses: read-out: Estimated Ki α2β2
T2 construct: expressed in transfected cells

α4β2 nAChR [2] = target: T3, α4β2 nAChR (Rattus norvegicus, UniProt P09483+P12390); experiment: as above; settings: for Affinity ratio (α3β4/α4β2): Ki α3β4 divided by Ki α4β2; for potency estimated from few doses: read-out: Estimated Ki α4β2
T3 construct: expressed in transfected cells

α2β4 nAChR = target: T4, α2β4 nAChR (Rattus norvegicus, UniProt P12389+P12392); experiment: as above; settings: for potency estimated from few doses: read-out: Estimated Ki α2β4
T4 construct: expressed in transfected cells

α3β2 nAChR = target: T5, α3β2 nAChR (Rattus norvegicus, UniProt P04757+P12390); experiment: as above; settings: for potency estimated from few doses: read-out: Estimated Ki α3β2
T5 construct: expressed in transfected cells

α3β4 nAChR = target: T6, α3β4 nAChR (Rattus norvegicus, UniProt P04757+P12392); experiment: as above; settings: for potency estimated from few doses: read-out: Estimated Ki α3β4
T6 construct: expressed in transfected cells

[3] = target: rat α3β4 nAChRs (KXα3β4R2 cells) (Rattus norvegicus, UniProt P04757+P12392); experiment: cell-based; settings: read-out: Relative Emax (% of nicotine Emax) α3β4 nAChR's
α4β2 nAChR's = target: T7, α4β2 nAChR's (Homo sapiens, UniProt P17787+P43681); experiment: 86Rb+ efflux assay, agonist activity; format: cell-based; settings: for Agonist activity at α4β2 (86Rb+ efflux): tested at 0.1, 1, 10 and 100 μM
T7 construct: expressed in transfected cells

α3β4 nAChR subtype = target: T8, α3β4 nAChR subtype (Rattus norvegicus, UniProt P04757+P12392); experiment: Antagonist activity, block of nicotine stimulated responses; format: cell-based; settings: for Inhibition of the function of the α3β4 nAChR subtype: at 100 μM; for Block of nicotine stimulated responses at α3β4: concentrations up to 10 μM
T8 construct: expressed in transfected cells; host or cells: KXα3β4R2 cells (named in the result head)
Description: (§1) Compounds 15 and 17a are antagonists of the α4β2 nAChR subtype. […] Compounds 15 and 17a were tested for their antagonist activities at the α4β2 and α3β4 receptors at concentrations from 0.1 μM to 100 μM. […] This is typical of most classical nicotinic ligands.^34

α4β2 nAChR subtype = target: T9, α4β2 nAChR subtype (Homo sapiens, UniProt P17787+P43681); experiment: as above; format: cell-based; settings: for inhibition at 100 µM: read-out: Inhibition of the function of the α4β2 nAChR subtype; for Block of nicotine stimulated responses at α4β2: concentrations up to 10 μM
T9 construct: expressed in transfected cells
Description: as §1

α6β42 = experiment: Primary screening, single concentration competition binding assay; settings: estimated from single concentration (10 μM) competition binding, read-out: Estimated Ki α6β42
α4β2 nAChR [4] = target: T10, α4β2 nAChR (Homo sapiens, UniProt P17787+P43681); settings: read-out: EC50 (partial agonist at α4β2 nAChR); reported in the literature; cited from earlier work
α4β2 nAChR [5] = target: T10, α4β2 nAChR; settings: read-out: Ki (binding affinity); reported in the literature; cited from earlier work
[6] = background statement; cited from earlier work
[7] = mean of three to five independent measurements, [3H]epibatidine, read-out: Ki α4β4
[8] = mean of three to five independent measurements, [3H]epibatidine, read-out: Ki α2β2
[9] = mean of three to five independent measurements, [3H]epibatidine, read-out: Ki α4β2
[10] = mean of three to five independent measurements, [3H]epibatidine, read-out: Ki α2β4
[11] = mean of three to five independent measurements, [3H]epibatidine, read-out: Ki α3β2
[12] = mean of three to five independent measurements, [3H]epibatidine, read-out: Ki α3β4
[13] = primary screening, estimated from single concentration (10 μM) competition binding
[14] = estimated from single run concentration binding assay

Molecule	pKi (α4β4 nAChR; [7])	pKi [1]	pKi (α2β2 nAChR; [8])	Affinity ratio (α3β4/α4β2) (α4β2 nAChR [2])	pKi (α4β2 nAChR [2]; [9])	pKi (α2β4 nAChR; [10])	pKi (α3β2 nAChR; [11])	pKi (α3β4 nAChR; [12])	potency estimated from few doses (α4β4 nAChR; [13]) [µM]	potency estimated from few doses (α4β2 nAChR [2]; [13]) [nM]	potency estimated from few doses (α2β4 nAChR; [13]) [µM]	potency estimated from few doses (α3β2 nAChR; [13]) [µM]	potency estimated from few doses (α3β4 nAChR; [13]) [µM]	potency estimated from few doses (α6β42) [µM]	further results
O=c1c(-c2ccc(F)cc2)ccc2n1CC1CNCC2C1 (single isomer, unassigned; (-)) [(−)-21a, 9-(4-Fluorophenyl)-1,2,3,4,5,6-hexahydro-1,5-methano-pyrido[1,2-a][1,5]diazocin-8-one]	5.48	5.51	6.09	157	6.38	5.09	4.92	4.18							
CN1CCCC1c1cccnc1 (single isomer, unassigned; (-)) [(−)-Nicotine, reference compound]															Emax [3]: 100%; Emax (α4β2 nAChR's; read-out: Relative Emax (% of nicotine Emax) α4β2 nAChR's, 86Rb+ efflux, mean ± standard error of three experiments): 100%
O=c1cc(CO)cc2n1CC1CNCC2C1 (racemic) [rac-17a, 10-(Hydroxymethyl)-1,2,3,4,5,6-hexahydro-1,5-methano-pyrido[1,2-a][1,5]diazocin-8-one]				909											pKi (α4β4 nAChR): 7.17; pKi (α2β2 nAChR): 7.49; pKi (α4β2 nAChR [2]): 7.96; pKi (α2β4 nAChR): 6.52; Inhibition of the function of the α3β4 nAChR subtype (α3β4 nAChR subtype): only slightly inhibited; Block of nicotine stimulated responses at α3β4 (α3β4 nAChR subtype): did not significantly block nicotine stimulated responses; inhibition at 100 µM (α4β2 nAChR subtype): > 50%; Block of nicotine stimulated responses at α4β2 (α4β2 nAChR subtype): did not significantly block nicotine stimulated responses; pKi (α3β2 nAChR): 6.33; Agonist activity at α4β2 (86Rb+ efflux) (α4β2 nAChR's): did not show agonist activity; pKi (α3β4 nAChR): 5.00
CCCCc1ccc(-c2ccc3n(c2=O)CC2CNCC3C2)cc1 (single isomer, unassigned; (-)) [(−)-21b, 9-(4-Butylphenyl)-1,2,3,4,5,6-hexahydro-1,5-methano-pyrido[1,2-a][1,5]diazocin-8-one]	4.89	4.68	5.10	17	5.09	4.55	4.44	3.85							
O=c1ccccn1CC1CCN(Cc2ccccc2)CC1 [Compound 7b, 1-[(1-Benzyl-piperidin-4-yl)methyl]pyridin-2(1H)-one]									4.5	1300	440	7.3	620	470	potency estimated from few doses (α2β2 nAChR; [13]): 26 µM
CN1CCCC(Cn2ccccc2=O)C1 (centres unmarked) [Compound 6b, 1-[(1-Methylpiperidin-3-yl)methyl]pyridin-2(1H)-one]									2.6	980	180	6	160	76	potency estimated from few doses (α2β2 nAChR; [13]): 19 µM
O=c1ccccn1CC1CCCNC1 (centres unmarked) [Compound 6a, 1-(Piperidin-3-ylmethyl)pyridin-2(1H)-one]									5.55	1780	159	18.7	535	253	potency estimated from few doses (α2β2 nAChR; [13]): 4.63 µM
O=c1ccccn1CC1CCCN(Cc2ccccc2)C1 (centres unmarked) [Compound 6c, 1-[(1-Benzylpiperidin-3-yl)methyl]pyridin-2(1H)-one]									1.4	540	91	4.3	83	54	potency estimated from few doses (α2β2 nAChR; [13]): 100 µM
O=c1cccc2n1C[C@@H]1CNC[C@H]2C1 [(−)-Cytisine (4), (−)-Cytisine]				144											pEC50 (α4β2 nAChR [4]): ~6.00; pKi (α4β2 nAChR [5]): ~9.00
CCC(=O)[C@H]1C2CNCC(C2)c2cccc(=O)n21 (single isomer, unassigned; (-)) [(−)-23, 6-Propionyl-1,2,3,4,5,6-hexahydro-1,5-methano-pyrido[1,2-a][1,5]diazocin-8-one]	4.70	4.64	4.85	18	4.80	4.30	3.52	3.55							
COC(=O)[C@H]1C2CNCC(C2)c2cccc(=O)n21 (single isomer, unassigned; (-)) [(−)-22, 8-Oxo-1,3,4,5,6,8-hexahydro-2H-1,5-methano-pyrido[1,2-a][1,5]diazocine-6-carboxylic acid methyl ester]	4.48	4.32	4.77	13	4.62	4.12	3.60	3.49							
Cc1cc2n(c(=O)c1)CC1CNCC2C1 (racemic) [rac-15, 10-Methyl-1,2,3,4,5,6-hexahydro-1,5-methano-pyrido[1,2-a][1,5]diazocin-8-one]				3526											pKi (α4β4 nAChR): 7.42; pKi (α2β2 nAChR): 8.12; pKi (α4β2 nAChR [2]): 8.72; Affinity ratio (α3β4/α4β2) (α4β2 nAChR [2]; listed as 15): > 3000; pKi (α2β4 nAChR): 6.74; Inhibition of the function of the α3β4 nAChR subtype (α3β4 nAChR subtype): only slightly inhibited; Block of nicotine stimulated responses at α3β4 (α3β4 nAChR subtype): did not significantly block nicotine stimulated responses; inhibition at 100 µM (α4β2 nAChR subtype): > 50%; Block of nicotine stimulated responses at α4β2 (α4β2 nAChR subtype): did not significantly block nicotine stimulated responses; pKi (α3β2 nAChR): 6.27; Agonist activity at α4β2 (86Rb+ efflux) (α4β2 nAChR's): did not show agonist activity; pKi (α3β4 nAChR): 5.17
10-Cyclohexyl(methoxymethyl)-1,2,3,4,5,6-hexahydro-1,5-methano-pyrido[1,2-a][1,5]diazocin-8-one [rac-25]				>862											potency estimated from few doses (α4β4 nAChR; [14]): 0.15 µM; potency estimated from few doses ([1]; estimated from single run concentration binding assay, read-out: Estimated Ki Forebrain): 170 nM; potency estimated from few doses (α2β2 nAChR; [14]): < 0.017 µM; potency estimated from few doses (α4β2 nAChR [2]; [14]): < 29 nM; potency estimated from few doses (α2β4 nAChR; [14]): 0.78 µM; potency estimated from few doses (α3β2 nAChR; [14]): 0.8 µM; potency estimated from few doses (α3β4 nAChR; [14]): 25 µM
Clc1ccc(C2CC3CCC2N3)cn1 (racemic) [(±)-Epibatidine]															Analgesic potency [6]: approximately 500 times that of morphine
Cc1ccc(-c2ccc3n(c2=O)CC2CNCC3C2)s1 (single isomer, unassigned; (-)) [(−)-21c, 9-(5-Methyl-2-thienyl)-1,2,3,4,5,6-hexahydro-1,5-methano-pyrido[1,2-a][1,5]diazocin-8-one]	6.23	5.92	6.30	59	6.41	5.77	5.22	4.64							
O=c1ccccn1CC1CCNCC1 [Compound 7a, 1-(Piperidin-4-ylmethyl)pyridin-2(1H)-one]									5.4	1600	80	12	750	87	
